Results published in patent US8501811B2, “TASPASE1 inhibitors and their uses” (Washington University, priority 2010, dated 2013).
“Also recorded” adds a separate entry of the source. Each block holds one molecule with its values, some of them ahead of it. Residues, ends and D or L forms follow the SMILES beside them. *: point of attachment. DNP = 2,4-dinitrophenyl quenching group; X1 = CS(=O)(=O)/C=C/[C@H](CC(=O)O)N*; MCA = fluorogenic coumarin group

Legend:
Taspase1 = molecular target: T1, Taspase1 (Homo sapiens, UniProt Q9H6P5); assay: FRET-based Taspase1 proteolytic reporter (FRPR) assay; assay type: biochemical; details: for EC50: Maybridge library screen, dose-response
T1 sequence (Q9H6P5 1-233 limits assumed): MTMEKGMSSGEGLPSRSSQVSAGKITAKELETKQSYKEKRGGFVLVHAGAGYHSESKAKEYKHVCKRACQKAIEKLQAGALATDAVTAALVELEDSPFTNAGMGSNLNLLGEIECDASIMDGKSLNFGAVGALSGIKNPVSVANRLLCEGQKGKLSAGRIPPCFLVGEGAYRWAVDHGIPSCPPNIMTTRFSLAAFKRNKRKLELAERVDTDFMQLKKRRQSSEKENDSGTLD

[1] = molecular target: T2, recombinant Taspase1 (rTaspase1) (Homo sapiens, UniProt Q9H6P5); assay: Taspase1-MLL in vitro cleavage assay (IVTT 35S methionine labeled p75MLL reporter, SDS-PAGE, autoradiography); assay type: biochemical; details: for Inhibition of Taspase1-mediated p75MLL cleavage (in words): indicated concentrations, 30 minutes pretreatment; for IC50: rTaspase1 pretreated 30 minutes at room temperature, then p75MLL reporter 30 minutes at 30° C., read-out: IC50 of Taspase1 inhibition (p75MLL cleavage); for Effect of increasing pretreatment time on Taspase1 inhibition: 5 μM, pre-incubation for increasing periods of time; for Inhibition of Taspase1-mediated p75MLL cleavage at 1 mM: 1 mM (up to 1 mM)
T2 sequence (Q9H6P5 1-233 limits assumed): T1 sequence (Q9H6P5 1-233 limits assumed)

[2] = tested on: SV40-transformed mouse embryonic fibroblasts (MEFs); assay: MTT assay of SV40-transformed MEFs, wild-type versus Taspase1-/-; assay type: cell-based; details: 2 days, relative cell number
autotoxin = autotoxin (Homo sapiens, UniProt Q13822); details: cited from earlier work
NCI60 cell lines = details: NCI DTP database; cited from earlier work
[3] = molecular target: Recombinant Caspase8 (rCaspase8) (Homo sapiens, UniProt Q14790); assay: Caspase8-BID in vitro cleavage assay (IVTT 35S methionine labeled p22Bid reporter); assay type: biochemical; details: 1 mM, tertiary screen
Chain of Recombinant Caspase8 (rCaspase8) (Q14790 217-374 limits assumed, species assumed): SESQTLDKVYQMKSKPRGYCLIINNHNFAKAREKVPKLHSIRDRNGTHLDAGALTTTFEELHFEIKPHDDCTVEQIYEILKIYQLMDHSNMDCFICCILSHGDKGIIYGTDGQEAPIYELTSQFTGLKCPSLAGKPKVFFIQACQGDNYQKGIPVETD

Molecule: CC[C@H](C)[C@H](NC(=O)[C@H](CCCCN)NC(C)=O)C(=O)N[C@@H](CO)C(=O)N[C@@H](CCC(N)=O)C(=O)N[C@@H](CC(C)C)C(=O)N[C@H](C=O)CC(=O)O [ISQLD-aldehyde] (Ac-KISQLD-aldehyde)
Inhibition of Taspase1-mediated p75MLL cleavage (in words) [1]: minimal activity

Molecule: CC[C@H](C)[C@H](NC(C)=O)C(=O)N[C@@H](CO)C(=O)N[C@@H](CCC(N)=O)C(=O)N[C@@H](CC(C)C)C(=O)N[C@H](/C=C/S(C)(=O)=O)CC(=O)O [ISQLD-vinyl sulfone] (Ac-ISQL-X1; N-terminus and C-terminus assumed)
IC50 [1]: 29.4 µM

Molecule: O=[As](O)(O)c1ccc(Cc2ccc([As](=O)(O)O)cc2)cc1 [NSC48300, [4-[(4-arsonophenyl)methyl]phenyl]arsonic acid]
Susceptibility of wild-type versus Taspase1-/- SV40-transformed MEFs [2]: more susceptible | Ki (Taspase1; 100 nM rTaspase1, varying concentrations of FRPR, read-out: KI of Taspase1 inhibition): 4.22 ± 0.46 µM | Mode of Taspase1 inhibition (Taspase1; varying concentrations of FRPR and inhibitor): non-competitive inhibition | Inhibition of autotoxin (autotoxin): inhibit autotoxin | Effect of increasing pretreatment time on Taspase1 inhibition [1]: did not enhance the inhibition | Effect of increasing pretreatment time on Taspase1 inhibition ([1]; listed as TASPIN-NSC48300): did not exhibit enhanced inhibition | Inhibition of Taspase1-mediated p75MLL cleavage at 10 μM ([1]; 10 μM): completely inhibited | Inhibition of Taspase1-mediated p75MLL cleavage at 1 mM [1]: inhibited Taspase1 | IC50 [1]: ~7.5 µM | Growth inhibition in the NCI60 screen (NCI60 cell lines): distinct pattern of growth inhibition | Inhibition of Caspase8-mediated p22Bid cleavage [3]: only targets Taspase1; also recorded: not Caspase8

Molecule: MCA-KISQLDGVDD-DNP ({MCA}-KISQLDGVDD-{DNP}) [FRPR]
Km (Taspase1; rTaspase1 at room temperature, read-out: apparent KM of the reporter substrate): 9.06 ± 2.8 µM

Molecule: arsenic acid
Inhibition of Taspase1-mediated p75MLL cleavage at 1 mM [1]: no inhibition

Second part, the molecule after the results:

EC50 (Taspase1): 9.9 µM
Molecule: O=C(NNC(=S)Nc1cccc(C(F)(F)F)c1)c1sc2ccccc2c1Cl [BTB 00807]

EC50 (Taspase1): 1.5 µM
Molecule: S=C(NNC(=S)NC1CC2C=CC1C2)Nc1ccc(Br)c(Cl)c1 (centres unmarked) [CD 02506]

EC50 (Taspase1): 3.3 µM
Molecule: O=C(CO/N=C/c1ccc(Cl)cc1Cl)NNCCC(=S)Nc1cc(Cl)ccc1Cl [CD 06082]

EC50 (Taspase1): 2.2 µM
Molecule: Cc1ccc(-c2nc(NS(=O)(=O)c3cccc4nonc34)sc2C)cc1Cl [HTS 01888]

EC50 (Taspase1): 4 µM
Molecule: Cc1ccc(S(=O)(=O)NC(=O)Nc2nc(-c3ccc(C)c(Cl)c3)c(C)s2)cc1 [HTS 06900]

EC50 (Taspase1): 3.9 µM
Molecule: Cc1ccc(NC(=S)NNC(=O)Cn2nnc(-c3cccc(Cl)c3Cl)n2)cc1Cl [RJF 02020]

EC50 (Taspase1): 5.9 µM
Molecule: CC(C)(C)c1cc(C(=O)NNC(=S)Nc2ccccc2)n(Cc2ccc(Cl)cc2Cl)n1 [SPB 08132]

Inhibition of Taspase1-mediated p75MLL cleavage (in words) [1]: no activity
Molecule: CC(C)C[C@H](NC(=O)[C@H](Cc1ccccc1)NC(=O)c1cnccn1)B(O)O [bortezomib]
